The test system of assay [1] is Puccinia recondita (f sp. tritici). The conditions noted are these: 150 grams per hectare; wheat cultivar Fielder; evaluated after 12 days.
Assay [2] deals with Sphaerotheca fulginea. The following applies: 150 grams per hectare; cucumber cultivar Bush Champion; scored seven days after inoculation.
The test system of assay [3] is Colletotrichum lagenarium. The following applies: 150 grams per hectare; cucumber cultivar Bush Champion.
The subject of assay [4] is Pseudoperonospora cubensis. The following applies: 9 grams per hectare; detached cucumber leaf; five days.

Take `CNC(=O)C(=NOC)c1ccccc1CON=C(C)C1CC1(C)c1ccccc1` (stereo not drawn) [Compound 3.11, (E,E and Z,E)-N-Methyl 2-[2-((trans-1-(2-phenyl-2-methyl-cyclopropyl)ethylidene)aminooxymethyl)phenyl]-2-methoxyiminoacetamide]: in assay [1], the “percent disease control, wheat leaf rust” value was found to be 100%. Further, the “percent disease control, cucumber powdery mildew” value in assay [2] stood at 100%. The “percent disease control, cucumber anthracnose” value in assay [3] is given as 100%.

As for `CNC(=O)/C(=N/OC)c1ccccc1CO/N=C(\C)C1CC1(C)c1ccc(Cl)cc1` (centres unmarked) [Compound 3.14A, (E,E)-N-Methyl 2-[2-((1-(2-(4′-chlorophenyl)-2-methylcyclopropyl)ethylidene)aminooxymethyl)phenyl]-2-methoxyiminoacetamide], in assay [1], the “percent disease control, wheat leaf rust” value is given as 100%. Further, the “percent disease control, cucumber powdery mildew” value in assay [2] is 100%. In addition, the “percent disease control, cucumber anthracnose” value in assay [3] turned out to be 100%.

Regarding `CON=C(C(=O)OC)c1ccccc1CON=C(C)C1CC1c1c(Cl)cccc1Cl` (stereo not drawn) [Compound 8.1, Methyl 2-[2-((trans-1-(2-(2′,6′-dichlorophenyl)cyclopropyl)ethylidene)aminooxymethyl)phenyl]-2-methoxyiminoacetate], in assay [2], the “percent disease control, cucumber powdery mildew” value is on record as 100%.

`CNC(=O)C(=NOC)c1ccccc1CON=C(C)C1CC1c1c(Cl)cccc1Cl` (stereo not drawn) [Compound 9.1, N-Methyl 2-[2-((trans-1-(2-(2′,6′-dichlorophenyl)cyclopropyl)ethylidene)aminooxymethyl)phenyl]-2-methoxyiminoacetamide]: in assay [1], the “percent disease control, wheat leaf rust” value is 100%. The “percent disease control, cucumber powdery mildew” value in assay [2] stood at 100%. Besides, the “percent disease control, cucumber anthracnose” value in assay [3] is 100%.

Turning to `CNC(=O)C(=NOC)c1ccccc1CON=C(C)C1CC1c1c(F)cccc1F` (stereo not drawn) [Compound 9.7A, N-Methyl 2-[2-((trans-1-(2-(2′,6′-difluorophenyl)cyclopropyl)ethylidene)aminooxymethyl)phenyl]-2-methoxyiminoacetamide], the “percent disease control, wheat leaf rust” value in assay [1] turned out to be 100%. For the same compound, the “percent disease control, cucumber powdery mildew” value in assay [2] is given as 100%. The “percent disease control, cucumber downy mildew” value in assay [4] is 100%. Moreover, the “percent disease control, cucumber anthracnose” value in assay [3] stood at 100%.

For the origin of these results see patent publication US6348627B1 (priority 1999, dated 2002).
